# Source: patent publication US9499493B2, “2,4-pyrimidinediamine compounds and their uses” (Rigel Pharmaceuticals, Inc., priority 2002, dated 2016)
# How the values were obtained:
# [1] = system: cultured human mast cells (CHMC); experiment: CHMC high cell density IgE activation: hexos (hexosaminidase) release; format: cell-based; conditions: anti-IgE activation
# Procedure: (§1) Inhibition of degranulation was measured at both low and high cell density by quantifying the release of the granule specific factors tryptase, histamine and hexosaminidase. Inhibition of release and/or synthesis of lipid mediators was assessed by measuring the release of leukotriene LTC4 and inhibition of release and/or synthesis of cytokines was monitored by quantifying TNF-α, IL-6 and IL-13. Tryptase and hexosaminidase were quantified using fluorogenic substrates as described in their respective examples. […] The protocols of the various assays are provided below.
# (§2) After sensitizing, cells are counted, pelleted (1000 rpm, 5-10 minutes), and resuspended at 1-2×10^6 cells/ml in MT buffer. Add 100 ul of cell suspension to each well and 100 ul of compound dilutions. The final vehicle concentration is 0.5% DMSO. Incubate at 37° C. (5% CO2) for 1 hour. After 1 hour of compound treatment, stimulate cells with 6× anti-IgE. Mix wells with the cells and allow plates to incubate at 37° C. (5% CO2) for one hour. After 1 hour incubation, pellet cells (10 minutes, 1000 RPM) and collect 200 ul per well of the supernatant, being careful not to disturb pellet. Place the supernatant plate on ice. During the 7-hour step (see next) perform tryptase assay on supernatant that had been diluted 1:500. Resuspend cell pellet in 240 ul of CM media containing 0.5% DMSO and corresponding concentration of compound. Incubate CHMC cells for 7 hours at 37° C. (5% CO2). After incubation, pellet cells (1000 RPM, 10 minutes) and collect 225 ul per well and place in −80° C. until ready to perform ELISAS. ELISAS are performed on appropriately diluted samples (determined empirically for each donor cell population so that the sample measurement falls within the standard curve) following the supplier's instructions.
# basophil cells [2] = experiment: Basophil ionomycin activation: histamine release assay; format: cell-based, human; conditions: Basophils
# Procedure: (§3) The basophil activation assay was carried out using whole human peripheral blood from donors allergic to dust mites with the majority of the red blood cells removed by dextran sedimentation. Human peripheral blood was mixed 1:1 with 3% dextran T500 and RBCs were allowed to settle for 20-25 min. The upper fraction was diluted with 3 volumes of D-PBS and cells were spun down for 10 min at 1500 rpm, RT. Supernatant was aspirated and cells were washed in an equal volume MT-buffer. Finally, cells were resuspended in MT-buffer containing 0.5% DMSO in the original blood volume. 80 uL cells were mixed with 20 uL compound in the presence of 0.5% DMSO, in triplicate, in a V-bottom 96-well tissue culture plate. A dose range of 8 compound concentrations was tested resulting in a 10-point dose response curve including maximum (stimulated) and minimum (unstimulated) response. […] The cells were stimulated for 30 minutes at 37° C., 5% CO2. The plate was spun for 10 min at 1500 rpm at room temperature and 80 uL the supernatant was harvested for histamine content analysis using the histamine ELISA kit supplied by Immunotech. The ELISA was performed according to supplier's instructions.
# Assays for ionomycin-induced basophil cell degranulation were carried out as described for the Basophil IgE or Dustmite Activation Assay (Section 6.4.6, supra), with the exception that following incubation with compound, cells were stimulated with 20 μl of 2 μM ionomycin.
# [3] = system: bone marrow derived mast cells (BMMC); experiment: BMMC high cell density IgE activation: LTC4; format: cell-based, mouse; conditions: anti-IgE, second part of TABLE 1
# Summary of the method: (§4)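 IgE-sensitized BMMC (1-3×10^6 cells/ml, MT buffer) were pretreated with compound for 1 h at 37 °C in 0.5% DMSO, then stimulated with DNP-BSA (6× stimulus, 60 ng/ml) for 1 h. Supernatant was taken, and cells were re-incubated 4–5 h in WEI-conditioned medium with compound. Mediators were quantified by ELISA.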
# [4] = Sheep model of allergic asthma (Ascaris suum challenge); format: in vivo; conditions: aqueous suspension
# Procedure: Sheep develop bronchoconstriction within minutes of exposure to inhaled antigen (Ascaris suum), with maximal airflow obstruction during the early allergic response (EAR). Release of preformed mast cell mediators is likely responsible for this early phase of airflow obstruction. […] In the sheep, AHR develops a few hours following antigen challenge, and can persist for up to 2 weeks.
# In the sheep model of allergic asthma, sheep are administered aerosols of test article via an endotracheal tube, followed by an aerosol challenge with antigen extracted from the roundworm, Ascaris suum, to which the sheep are naturally allergic. Allergen challenge leads to direct bronchoconstriction (both EAR and LAR) and a persistent non-specific AHR. These three characteristics are similar to those seen in human allergic asthmatics. The activity of the test agent is determined by changes in the lung resistance (RL), which is calculated from measurements of transpulmonary pressure, flow, and respiratory volume. […] The LAR is a less pronounced increase in RL, which starts approximately 5-6 hours following allergen challenge and is resolved by 8 hours post-challenge. Twenty-four hours after the challenge, a dose response to carbachol is measured to determine the AHR, which is expressed as the dose of carbachol required to increase RL by 400% over baseline. (This measurement is referred to as the provocative concentration of carbachol that elicits a 400% increase in RL over baseline (PC400). The data are compared to historical control data for the same individual when administered a saline control aerosol and challenged with Ascaris suum.
# [5] = Immediacy (time course) of inhibitory activity; format: cell-based; conditions: FIG. 5
# [6] = system: bone marrow derived mast cells (BMMC); experiment: BMMC high cell density IgE activation: hexosaminidase; format: cell-based, mouse; conditions: anti-IgE, second part of TABLE 1, read-out: BMMC anti-IgE hexos. IC50
# Summary of the method: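 IgE-sensitized BMMC at 1-3×10^6 cells/ml preincubated 1 hour at 37° C. with compound (0.5% DMSO), then stimulated 1 hour with DNP-BSA (6× stimulus 60 ng/ml). Supernatant hexosaminidase measured with 2 mM 4-methylumbelliferyl-N-acetyl-glucosaminide substrate at 37° C., read at 5–30 minutes.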
# [7] = system: bone marrow derived mast cells (BMMC); experiment: BMMC high cell density IgE activation: TNFalpha; format: cell-based, mouse; conditions: anti-IgE, second part of TABLE 1, read-out: BMMC anti-IgE TNF-alpha IC50
# Summary of the method: as §4
# B-cell line BJAB = experiment: BJAB toxicity, Cell Titer Glo assay; format: cell-based; conditions: 18 hours incubation
# Procedure: (§5) Seed 50 μl cells (1×10^6/ml) into each well containing 50 μl compound. The final vehicle concentration is 0.5% DMSO, 1.5% MeOH. Shake plates for 1 minute to mix cells and compound. Incubate plates at 37° C. (5% CO2) for 18 hours. Next day, harvest 50 μl cells from each well, add to 50 μl Cell Titer Glo reagent ([…]). Shake plates for 1 minute. Read on luminometer.
# [8] = system: cultured human mast cells (CHMC); experiment: CHMC high cell density IgE activation: TNFalpha; format: cell-based; conditions: anti-IgE activation; read-out: CHMC high density TNF-alpha
# Procedure: as §1, §2
# Jurkat cells = experiment: Jurkat toxicity, Cell Titer Glo assay; format: cell-based; conditions: 18 hours incubation
# Procedure: as §5, with “The final vehicle concentration is 0.5% DMSO, 1.5% MeOH.” left out, “(5% CO2) for 18 hours.” left out
# [9] = system: cultured human mast cells (CHMC); experiment: CHMC high cell density IgE activation: histamine; format: cell-based; conditions: anti-IgE activation
# Procedure: as §1, §2
# [10] = system: cultured human mast cells (CHMC); experiment: CHMC low cell density ionomycin activation: tryptase assay; format: cell-based
# [11] = system: bone marrow derived mast cells (BMMC); experiment: BMMC high cell density IgE activation: histamine; format: cell-based, mouse; conditions: anti-IgE, second part of TABLE 1
# Summary of the method: as §4
# [12] = Mouse model of allergic asthma (ovalbumin); format: in vivo; conditions: for methacoline-induced bronchocontriction: mouse, in vivo
# Source text: Mice are sensitized to ovalbumin (chicken protein) in the presence of an adjuvant (Alum) by the intraperitoneal route on day 0 and day 7. One week later, mice are challenged intranasally with ovalbumin on Days 14, 15 and 16 (more stringent model) or on Day 14 (less stringent model). This sensitization and challenge regimen leads to airway hyperresponsiveness and inflammation in the lungs, which are two dominant characteristics of human allergic asthma. In the mouse model, the in vivo airway responses are measured using a whole body plethysmograph which determines the PENH (enhanced Pause, Buxco Electronics). The PENH is a dimensionless value comprised of the peak inspiratory flow (PIF), peak expiratory flow (PEF), time of inspiration, time of expiration and relaxation time, and is considered a validated parameter of airway responsiveness. Responses to allergen challenge (OVA) are compared with animals challenged with saline only. Twenty-four hours after challenge, mice are exposed to increasing doses of methacholine (muscarinic receptor agonist) which results in smooth muscle contraction. […] In addition, a cellular infiltrate in the airway is observed in ovalbumin challenged mice when compared with the saline challenged mice. This cellular infiltrate is mainly characterized by eosinophils, but a smaller influx of neutrophils and mononuclear cells is also present.
# The use of this model for the evaluation of small molecule inhibitors of mast cell degranulation has been validated is several ways. First, using mast cell deficient mice (W/W^v) it has been shown that the ovalbumin-induced responses are dependent upon the presence of mast cells.
# [13] = system: cultured human mast cells (CHMC); experiment: CHMC low cell density IgE activation: tryptase assay; format: cell-based; conditions: anti-IgE
# Summary of the method: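 Degranulation is read as supernatant tryptase activity, using tryptase substrate incubated 30 min at room temperature. Before this, CHMC at low density (1000-1500 cells/well) rest 1 hr at 37° C and are triggered with anti-IgE for 30 min at 37° C.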
# basophil cells [14] = experiment: Basophil IgE activation: histamine release assay; format: cell-based, human; conditions: Basophils, anti-IgE
# Procedure: as §3
# [15] = system: bone marrow derived mast cells (BMMC); experiment: BMMC high cell density ionomycin activation: hexosaminidase; format: cell-based, mouse; conditions: second part of TABLE 1, read-out: BMMC Ionomycin hexos. IC50
# CHMC cells = experiment: Phosphorylation of proteins downstream of Syk / LYN kinase in the FcεRI cascade, activated CHMC cells; format: cell-based, human; conditions: FIG. 10
# [16] = 45 mg/sheep, pretreatment 60 min
compound,measurement,setting,value
"CNC(=O)COc1cccc(Nc2ncc(F)c(Nc3ccc4c(c3)OCCO4)n2)c1 [R926495, N4-(3,4-Ethylenedioxyphenyl)-5-fluoro-N2-[3-(N-methylamino)carbonylmethyleneoxyphenyl]-2,4-pyrimidinediamine]",IC50,[1],100 nM
same,IC50,basophil cells [2],> 10000 nM
same,IC50,[3],240 nM
same,LAR and AHR (in words),"[4]; 45 mg/sheep, 60 minutes prior to allergen challenge",blocked
same,AHR (% inhibition),[4]; [16],41%
same,EAR (% inhibition),[4]; [16],33%
same,LAR (% inhibition),[4]; [16],85%
same,EAR (in words),[4],greatly reduced
same,onset of inhibitory activity,[5],immediacy of the inhibitory activity
same,IC50,[6],56 nM
same,IC50,[7],77 nM
same,IC50,B-cell line BJAB,> 10000 nM
same,IC50,[8],362 nM
same,IC50,Jurkat cells,> 10000 nM
same,IC50,[9],66 nM
same,IC50,[10],> 10000 nM
same,IC50,[11],89 nM
O=C(O)c1cc(=O)c2c(OCC(O)COc3cccc4oc(C(=O)O)cc(=O)c34)cccc2o1 [Cromolyn],ovalbumin-induced airway hyperresponsiveness and inflammation,[12]; data not shown,able to block
"CNC(=O)COc1cccc(Nc2ncc(F)c(Nc3ccc4c(n3)NC(=O)CO4)n2)c1 [R921304, 5-Fluoro-N2-(3-methylaminocarbonylmethyleneoxyphenyl)-N4-[2H-pyrido[3,2-b]-1,4-oxazin-3(4H)-one-6-yl]-2,4-pyrimidinediamine]",ovalbumin-induced airway hyperresponsiveness to methacholine,"[12]; intranasal, 20 mg/kg, 10 consecutive days (Day 7 through Day 16)",able to inhibit
same,IC50,[13],85 nM
same,IC50,[10],> 10000 nM
C[C@@H]1C[C@H]2[C@@H]3CCC4=CC(=O)C=C[C@]4(C)[C@@]3(F)[C@@H](O)C[C@]2(C)[C@@]1(O)C(=O)CO [dexamethasone],methacoline-induced bronchocontriction,[12],inhibitory effect
"Fc1cnc(Nc2ccc3c(c2)OC(F)(F)C(F)(F)O3)nc1Nc1ccc2c(c1)OC(F)(F)C(F)(F)O2 [R926037, N2,N4-Bis(3,4-tetrafluoroethylendioxyphenyl)-5-fluoro-2,4-pyrimidinediamine]",IC50,basophil cells [14],> 10000 nM
same,IC50,basophil cells [2],> 10000 nM
same,IC50,[6],> 10000 nM
same,IC50,[15],> 10000 nM
"CC(C)(C)n1nc(-c2ccc(Cl)cc2)c2c(N)ncnc21 [PP2, reference compound]",phosphorylation of proteins downstream of LYN kinase,CHMC cells,inhibition
CCCC1O[C@@H]2C[C@H]3[C@@H]4CCC5=CC(=O)C=C[C@]5(C)[C@H]4[C@@H](O)C[C@]3(C)[C@]2(C(=O)CO)O1 (stereo partly shown) [budesonide],methacoline-induced bronchocontriction,[12],inhibitory effect
